Entries after “also recorded” stand apart in the source; their conditions may differ.
Experiments:
[1] = test system: hair cells of mouse OC's in culture; experiment: Protection against gentamicin-induced hair cell loss in mouse organ of Corti explants; type: cell-based; conditions: 24 h; for loss of hair cells: 50 μM gentamicin alone
Description: (§1) OCs were harvested then placed in culture medium [Dulbecco's Modified Eagle Medium supplemented with 10% FCS, 25 mM HEPES and 30 U/ml penicillin (Invitrogen, Carlsbad, Calif., USA)] and incubated for 24 hours at 37° C. in an atmosphere of 95% O2/5% CO2. After that period, the culture medium was replaced with fresh medium containing no compound or 200 μM gentamycin alone or 200 μM gentamicin with either 2 or 10 μM pioglitazone, and incubated for a further 48 hours at 37° C. Ten OC explants were used for each treatment condition.
(§2) After incubation with compounds, the OCs were fixed in 4% paraformaldehyde, washed and then stained with a fluorescein (FITC)-conjugated phalloidin to detect inner and outer hair cells. After staining, the OCs were visualized and photographed using a fluorescence microscope (Olympus FSX100). Outer and inner hair cells were separately quantitated for the apical, basal, and middle turn of each organ of Corti. The values for each turn were averaged for the 10 OCs used for each condition. Significant differences between treatment groups in numbers OHC and IHC were determined using analysis of variance (ANOVA) followed by the least significant difference (LSD) post-hoc test (Stat View 5.0). Differences associated with P-values of less than 0.05 were considered to be statistically significant. All data are presented as mean±SD.
Methods were similar to those in Example 1. The main differences were that mouse OC's were used rather than rat OC's. Moreover, treatment was performed for 24 hrs with 50 μM gentamicin. The number of OC's used for each experimental condition was 3-5. The concentrations of test substances were 2 μM and 10 μM for tesaglitazar and muraglitazar, and 25 μM and 150 μM for fenofibric acid.

[2] = test system: noise-induced hearing loss; experiment: Protection against noise-induced hearing loss, auditory brainstem response (ABR); type: in vivo, guinea pigs; conditions: for threshold shift (ABR), mean±SD: single 40 μl round window application day before noise
Excerpt: The guinea pig model is the preferred animal species in hearing research. The agent application as well as the noise trauma was applied under general anesthesia. Upon arrival, animals underwent an acclimatization period of at least one week prior to experiments.
Guinea pigs were first anaesthetized and hearing evaluated by a standard ABR method then into treatment groups. Each animal received a single round window application of test substance to both ears. The following day, animals were exposed to 115 dB broad band noise for 2 hrs under anaesthesia. At one and two weeks following noise exposure, the animals underwent a second hearing evaluation.
Animals were dosed with a single 40 μl application of pioglitazone formulation or matching vehicle, onto the cochlear round window in both ears the day prior to noise exposure. For this approach, a hole was drilled in the rostral part of the skull to directly access the Bulla which allows drug application to the round window under visual control.
Animals were noise-exposed in a soundproof chamber (0.8×0.8×0.8 m, minimal attenuation 60 dB) for 2 h to broadband white noise (5-20 kHz) at 115 dB sound pressure level (SPL) under anaesthesia (60 mg/kg ketamine and 6 mg/kg xylazine). Noise was delivered binaurally by loudspeakers (HTC 11.19; Visaton, Haan, Germany) placed above the animal's head. The speakers were connected to an audio amplifier (Tangent AMP-50; Aulum, Denmark) and a DVD player.
At baseline before the noise exposure and on day 7 and 14 after noise, frequency-specific (2; 4; 8; 12; 16; 20; 24; 28; 32; 36; 40 kHz) auditory brainstem responses (ABR) were recorded in all treated animals and in controls. Auditory stimuli were delivered binaurally at different SPLs with a sinusoid generator (Model SSU2; Werk Fernmeldewesen, Berlin, Germany). Frequency output was controlled and adjusted with a digital counter (1941A Digital Counter; Fluke, Scarborough, Ontario, Canada). Sub-dermal needle electrodes were placed at the vertex (active), mastoid (reference), and in one foot (ground). ABR recordings were carried out with a Viking IV-measurement system (Viasys Healthcare, Conshohocken, Pa.). The brainstem responses were amplified (100,000×), filtered (bandpass 0.15-3 kHz), and averaged (300×) by the Viking IV-system. The amplitudes of the ABR waves were measured at different sound intensities by changing the attenuation of signal amplification. The amplitude-growth function was calculated for each tested frequency, and a linear regression was fitted to the linear portion of the data. The hearing threshold could be calculated for each frequency by extrapolating the linear amplitude-grow function of the regression line to zero. […]

[3] = test system: hair cells of organ of Corti (OC) explants; experiment: Protection against gentamicin-induced hair cell loss in rat organ of Corti explants; type: cell-based, Sprague-Dawley rats
Description: All animal procedures were carried out according to protocols approved by the Kantonales Veterinäramt, Basel, Switzerland. Postnatal day 5 (p5) Sprague-Dawley rats were used for the studies. Studies were performed in vitro, using organ of Corti (OC) explants from p5 animals. Animals were sacrificed and the cochleae carefully dissected to separate the organ of Corti from the spiral ganglion, stria vascularis and Reissner's membrane [Sobkowicz H M, Loftus J M, Slapnick S M. Acta Otolaryngol Suppl. 1993; 502:3-36].
as §1, §2

[4] = 2 μM test substance with 50 μM gentamicin
[5] = 10 μM test substance with 50 μM gentamicin
[6] = concentration not stated, 50 μM gentamicin, medio-basal turns

Compound: COc1ccc(OC(=O)N(CC(=O)O)Cc2ccc(OCCc3nc(-c4ccccc4)oc3C)cc2)cc1 [Muraglitazar]
- protection from gentamicin-dependent hair cell loss [1, 4]: not effective
- protection from gentamicin-dependent hair cell loss [1, 5]: partially protective
- protection from gentamicin-dependent hair cell loss [1, 6]: protected from gentamicin-dependent hair cell loss; also recorded: significantly prevent gentamicin-dependent hair cell loss

Compound: CCc1ccc(CCOc2ccc(CC3SC(=O)NC3=O)cc2)nc1 (stereo not drawn) [Pioglitazone, pioglitazone]
- reduction in the threshold shifts vs. vehicle controls ([2]; hearing recorded 7-14 days after noise trauma): > 50%
- threshold shift (ABR), mean±SD ([2]; one week after noise (115 dB, 2 h), 5-20 kHz): 12.7±1.3 dB
- protection from noise-induced hearing loss ([2]; one week after noise, vs. vehicle): approximately 60%
- threshold shift (ABR), mean±SD ([2]; two weeks after noise (115 dB, 2 h)): 6.3±3.9 dB
- prevention of gentamicin-dependent hair cell loss (IHC and OHC; apical, basal, middle turns) ([3]; 2 μM pioglitazone with 200 μM gentamicin, 48 h): significantly prevent gentamicin-dependent hair cell loss in all turns
- prevention of gentamicin-dependent hair cell loss (IHC and OHC; apical, basal, middle turns) ([3]; 2 μM pioglitazone with 200 μM gentamicin, 48 h, listed as pioglitazone): completely prevent gentamicin-dependent hair cell loss in all turns
- prevention of gentamicin-dependent hair cell loss (IHC and OHC; apical, basal, middle turns) ([3]; 10 μM pioglitazone with 200 μM gentamicin, 48 h): significantly prevent gentamicin-dependent hair cell loss in all turns
- prevention of gentamicin-dependent hair cell loss (IHC and OHC; apical, basal, middle turns) ([3]; 10 μM pioglitazone with 200 μM gentamicin, 48 h, listed as pioglitazone): completely prevent gentamicin-dependent hair cell loss in all turns
- prevention of gentamicin-dependent hair cell loss ([3]; pioglitazone co-treatment, concentration not stated, 48 h): almost completely preventing gentamicin-dependent hair cell loss

Compound: Tesaglitazar
- protection from gentamicin-dependent hair cell loss [1, 4]: able to antagonize the effects of gentamicin and to preserve hair cell number and morphology
- protection from gentamicin-dependent hair cell loss [1, 5]: able to antagonize the effects of gentamicin and to preserve hair cell number and morphology
- protection from gentamicin-dependent hair cell loss [1, 6]: protected from gentamicin-dependent hair cell loss; also recorded: significantly prevent gentamicin-dependent hair cell loss

Compound: fenofibric acid
- protection from gentamicin-dependent hair cell loss ([1]; 25 μM test substance with 50 μM gentamicin): not effective
- protection from gentamicin-dependent hair cell loss ([1]; 150 μM test substance with 50 μM gentamicin): completely protective
- protection from gentamicin-dependent hair cell loss [1, 6]: protected from gentamicin-dependent hair cell loss; also recorded: significantly prevent gentamicin-dependent hair cell loss

Compound: gentamicin
- loss of hair cells [1]: approximately 50%
- loss of hair cells ([1]; listed as Gentamicin): 50%
- reduction of hair cell number ([3]; 200 μM gentamicin alone, 48 h in culture, each segment): 50-70%

— patent US20180021320A1, “Method of Preventing or Treating Hearing Loss” (SUPPORT-VENTURE GMBH, priority 2015, published 2018)
